# Experimental data as given in patent US6214859A, “Ethylamine derivatives” (Fujimoto Brothers Co., Ltd., priority 1997, dated 2001).
# Several values for one entry are separate records, joined by “and”; a condition that tells them apart may be missing. Equal entries are not always repeated.
# Experiments:
# [1] = system: dopamine release, striatum; test: Release of biogenic amines from brain tissue: dopamine, striatum; type: in vivo, Wistar rats
# [2] = Toxicity screening using primary cultured hepatocyte (LDH release); type: cell-based, rat; conditions: rat, primary hepatocytes, 24 hr, control 0.5% saline or 0.5% DMSO, read-out: Percent control of LDH release
# Description: The hepatocytes was prepared from rat liver by collagenase perfusion method and suspension containing 5×10^5 cells/ml were prepared. After cultivation for 24 hr, the suspension was exchanged to the William's Medium E (GIBCO BRL) containing 10 or 100 μM of the compounds of this invention. After cultivation for 24 hr, the activity of lactate dehydrogenase (LDH) released in the medium was measured.
# [3] = system: noradrenaline release, locus coeruleus; test: Release of biogenic amines from brain tissue: noradrenaline, locus coeruleus; type: in vivo, Wistar rats
# [4] = system: rats reduced learning ability by tetrabenazine; test: Conditioned avoidance task in the shuttle box (tetrabenazine-treated rats); type: in vivo, rat; conditions: tetrabenazine 1 mg/kg s.c., significance and direction
# Procedure, shortened: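 Male and female rats (200–220 g) were trained in a shuttle box (light/buzzer conditioned stimulus, 100 trials/day for 5 days). Tetrabenazine 1 mg/kg s.c. was given 1 h before testing, with compound at 1, 2, 2.5 or 5 mg/kg s.c. given together with tetrabenazine. CARs, EFs and IRs were counted automatically and analysed by multi-way ANOVA.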
# [5] = system: serotonin release, raphe; test: Release of biogenic amines from brain tissue: serotonin, raphe; type: in vivo, Wistar rats
# [6] = system: dopamine release, substantia nigra; test: Release of biogenic amines from brain tissue: dopamine, substantia nigra; type: in vivo, Wistar rats
smiles,measurement,setting,value
"CCCNC(CCC)Cc1c[nH]c2ccccc12.Cl (centres unmarked) [Compound No. 20, 1-(Indol-3-yl)-2-propylaminopentane Hydrochloride]","Release of dopamine, striatum",[1]; 0.005 mg/kg s.c.,"5.8 ± 0.11 nmol/g tissue, for 20 min"
same,"Release of dopamine, striatum","[1]; 0.01 mg/kg s.c., Hydrochloride","6.5 ± 0.12 nmol/g tissue, for 20 min and 5.8 ± 0.18 nmol/g tissue, for 20 min"
same,"Release of dopamine, striatum",[1]; 0.05 mg/kg s.c.,"5.6 ± 0.13 nmol/g tissue, for 20 min"
same,"Release of dopamine, striatum",[1]; 0.25 mg/kg s.c.,"3.2 ± 0.05 nmol/g tissue, for 20 min"
same,"Release of dopamine, striatum",[1]; 1.00 mg/kg s.c.,"4.2 ± 0.15 nmol/g tissue, for 20 min"
same,"Release of dopamine, striatum",[1]; 5.00 mg/kg s.c.,"4.7 ± 0.13 nmol/g tissue, for 20 min"
same,"activity at 24 h, 10 µM",[2],92.7 ± 5.31%
same,"activity at 24 h, 100 µM",[2],185 ± 3.45%
same,"Release of noradrenaline, locus coeruleus",[3]; 0.005 mg/kg s.c.,"5.3 ± 0.30 nmol/g tissue, for 20 min"
same,"Release of noradrenaline, locus coeruleus","[3]; 0.01 mg/kg s.c., Hydrochloride","4.3 ± 0.10 nmol/g tissue, for 20 min and 2.2 ± 0.15 nmol/g tissue, for 20 min"
same,"Release of noradrenaline, locus coeruleus",[3]; 0.05 mg/kg s.c.,"3.2 ± 0.15 nmol/g tissue, for 20 min"
same,"Release of noradrenaline, locus coeruleus",[3]; 0.25 mg/kg s.c.,"4.3 ± 0.15 nmol/g tissue, for 20 min"
same,"Release of noradrenaline, locus coeruleus",[3]; 1.00 mg/kg s.c.,"4.4 ± 0.25 nmol/g tissue, for 20 min"
same,"Release of noradrenaline, locus coeruleus",[3]; 5.00 mg/kg s.c.,"3.5 ± 0.20 nmol/g tissue, for 20 min"
same,Condition Avoidance Reflex (CARs),"[4]; 1 mg/kg s.c., Hydrochloride",* .Arrow-up bold.
same,Condition Avoidance Reflex (CARs),[4]; 2.5 mg/kg s.c.,**** .Arrow-up bold.
same,Escape Failures (EFs),[4]; 2.5 mg/kg s.c.,**** .dwnarw.
same,Condition Avoidance Reflex (CARs),[4]; 5 mg/kg s.c.,**** .Arrow-up bold.
same,Escape Failures (EFs),[4]; 5 mg/kg s.c.,* .dwnarw.
same,Intersignal Reactions (IRs),[4]; 5 mg/kg s.c.,* .dwnarw.
same,"Release of serotonin, raphe",[5]; 0.005 mg/kg s.c.,"0.492 ± 0.02 nmol/g tissue, for 20 min"
same,"Release of serotonin, raphe","[5]; 0.01 mg/kg s.c., Hydrochloride","0.961 ± 0.02 nmol/g tissue, for 20 min and 0.938 ± 0.01 nmol/g tissue, for 20 min"
same,"Release of serotonin, raphe",[5]; 0.05 mg/kg s.c.,"1.203 ± 0.08 nmol/g tissue, for 20 min"
same,"Release of serotonin, raphe",[5]; 0.25 mg/kg s.c.,"0.481 ± 0.05 nmol/g tissue, for 20 min"
same,"Release of serotonin, raphe",[5]; 1.00 mg/kg s.c.,"0.355 ± 0.05 nmol/g tissue, for 20 min"
same,"Release of serotonin, raphe",[5]; 5.00 mg/kg s.c.,"0.565 ± 0.01 nmol/g tissue, for 20 min"
same,"Release of dopamine, substantia nigra",[6]; 0.005 mg/kg s.c.,"8.7 ± 0.13 nmol/g tissue, for 20 min"
same,"Release of dopamine, substantia nigra","[6]; 0.01 mg/kg s.c., Hydrochloride","10.3 ± 0.23 nmol/g tissue, for 20 min and 10.0 ± 0.14 nmol/g tissue, for 20 min"
same,"Release of dopamine, substantia nigra",[6]; 0.05 mg/kg s.c.,"7.7 ± 0.15 nmol/g tissue, for 20 min"
same,"Release of dopamine, substantia nigra",[6]; 0.25 mg/kg s.c.,"5.2 ± 0.26 nmol/g tissue, for 20 min"
same,"Release of dopamine, substantia nigra",[6]; 1.00 mg/kg s.c.,"6.7 ± 0.19 nmol/g tissue, for 20 min"
same,"Release of dopamine, substantia nigra",[6]; 5.00 mg/kg s.c.,"5.7 ± 0.18 nmol/g tissue, for 20 min"
"CCCNC(CCC)Cc1ccc2c(c1)OCO2.Cl (centres unmarked) [Compound No. 27, 1-(1,3-Benzodioxol-5-yl)-2-propylaminopentane Hydrochloride]","Release of dopamine, striatum",[1]; 0.10 mg/kg s.c.,"3.4 ± 0.10 nmol/g tissue, for 20 min"
same,"Release of dopamine, striatum",[1]; 0.25 mg/kg s.c.,"4.1 ± 0.24 nmol/g tissue, for 20 min"
same,"activity at 24 h, 10 µM",[2],115 ± 10.8%
same,"activity at 24 h, 100 µM",[2],114 ± 11.2%
same,"Release of noradrenaline, locus coeruleus",[3]; 0.10 mg/kg s.c.,"3.8 ± 0.15 nmol/g tissue, for 20 min"
same,"Release of noradrenaline, locus coeruleus",[3]; 0.25 mg/kg s.c.,"3.5 ± 0.20 nmol/g tissue, for 20 min"
same,Condition Avoidance Reflex (CARs),[4]; 1 mg/kg s.c.,*** .Arrow-up bold.
same,Escape Failures (EFs),[4]; 1 mg/kg s.c.,*** .dwnarw.
same,"Release of serotonin, raphe",[5]; 0.10 mg/kg s.c.,"0.399 ± 0.00 nmol/g tissue, for 20 min"
same,"Release of serotonin, raphe",[5]; 0.25 mg/kg s.c.,"0.414 ± 0.01 nmol/g tissue, for 20 min"
same,"Release of dopamine, substantia nigra",[6]; 0.10 mg/kg s.c.,"7.8 ± 0.44 nmol/g tissue, for 20 min"
same,"Release of dopamine, substantia nigra",[6]; 0.25 mg/kg s.c.,"9.5 ± 0.32 nmol/g tissue, for 20 min"
